Assays:
[1] = Microdialysis study of tumor ECF disposition of CKD-602
Method: At all other microdialysis sample intervals, probe recovery was estimated using camptothecin as a tracer agent.
The HPLC system consisted of a Finnigan Specta Systems AS3000 autosampler and P4000 quarternary pump (Thermo Finnigan, Waltham, Mass.) with a Phenomenex Synergi Hydro-RP 80A (4 um, 100×2 mm) analytical column (Phenomenex, Torrance, Calif.). The isocratic mobile phase consisted of 0.1% formic acid in methanol:water (35:85, v/v) and was pumped at 0.2 mL/min. Injection volume was 10 pL and the run time was 10 min. […] The insert probe temperature was set at 400° C. with 3 kV ion spray voltage and 20 V orifice voltage. Nitrogen gas flow was fixed at 75 p.s.i. at the tank head unit. The system was operated with ThermoFinnigan Xcaliber software.

[2] = mice; IV push
[3] = Plasma, tumor and tissue pharmacokinetic disposition of CKD-602 after single IV administration in mice bearing A375 tumors; type: in vivo
Source text: The objectives of the study were to evaluate the plasma, tumor, and tissue disposition of CKD-602 after a single intravenous (IV) administration of liposomes entrapped with CKD-602 and having an outer surface coating of methoxypolyethylene glycol (S-CKD602) and non-liposomal CKD-602 in female SCID mice bearing A375 human melanoma xenografts. New sample processing methods were developed to evaluate the encapsulated and released CKD-602 in plasma after administration of S-CKD602. Microdialysis methodology was used to evaluate the release of CKD-602 from S-CKD602 in tumor ECF.
Mice. All mice were handled in accordance with the Guide to the Care and Use of Laboratory Animals (National Research Council, 1996), and studies were approved by the Institutional Animal Care and Use Committee at the University of Pittsburgh Medical Center. Mice (female C.B-17 SCID,4-6 weeks of age, and specific pathogen free), were obtained from Taconic (Hudson, N.Y.), and were allowed to acclimate to the animal facilities at the University of Pittsburgh for 1 week prior to initiation of study. Mice were housed in microisolator cages and allowed ISDPRO autoclavable rodent chow (PMI Nutrition International, Inc., Brentwood, Mo.) and mice received water ad libitum. Body weights and tumor size were measured twice weekly and clinical observations were made twice daily.
Tumor Lines. A375 human melanoma xenografts were obtained from the DCTD Tumor Repository (Fredrick, Md.) and were mouse antigen production test-negative. A375 tumors were expanded in culture and injected (1×10^7 cells/mouse) subcutaneously into passage mice. The A375 tumors were harvested when they were 1 to 2 g and were implanted as approximately 25-mg fragments subcutaneously on the fight flank of SCID mice by aseptic techniques. […] Pharmacokinetic and microdialysis studies were performed when the tumors were approximately 1000 to 1500 mm^3 (1 to 1.5 g) in size.
Formulation and Administration. S-CKD602 is a pegylated liposomal formulation of CKD-602. The clinical formulation of S-CKD602 was used in this study (Alza Corp., Mountain View Calif.) (Zamboni et al., Final results of a phase I and pharmacokinetic study of STEALTH liposomal CKD-602 (S-CKD602) in subjects with advanced solid tumors. Proceedings of ASCO […];82s:2006). Approximately 80% of the lipid in S-CKD602 liposome is fully hydrogenated soy phosphatidylcholine and cholesterol. In addition, methoxypolyethylene glycol is covalently bound to phosphatidylethanolamine and a component of the lipid bilayer. The mean particle size of the S-CKD602 was approximately 110 nm. CKD-602 is encapsulated in the core of the liposome with an encapsulation efficiency of greater than 90%. The drug-to-lipid ratio of S-CKD602 is approximately […] CKD-602 per milligram of lipid. In the S-CKD602 formulation, the CKD-602 concentration was 0.1 mg/mL. The doses of S-CKD602 refer to actual doses of CKD-602. S-CKD602 was administered at 1 mg/kg IV push via a tail vein over approximately 1 min. This dose is one-half the maximum tolerated dose (MTD) in mice. The dose of S-CKD602 administered was based on the maximum volume of drug allowed to be administered IV by the study's IACUC.
Non-liposomal CKD602 was administered at 30 mg/kg IV push via the tail vein. This dose is approximately the MTD for a single dose of non-liposomal CKD-602 in mice. Non-liposomal CKD-602 was prepared at 3 mg/mL in 270 mM mannitol and 0.4 mM tartaric acid in a 5% dextrose solution at pH 3.6. The vehicle control for S-CKD602 and non-liposomal CKD-602 was 0.9% NaCI and 270 mM mannitol and 0.4 mM tartaric acid in a 5% dextrose solution at pH 3.6, respectively.
Pharmacokinetic Studies. Due to limited sample volume, the pharmacokinetic and microdialysis studies were performed in separate groups of mice. Pharmacokinetic studies of S-CKD602 were performed after administration of vehicle, and at 5 min, 0.25, 0.5, 1, 2, 4, 7, 16, 24, 48, and 72 h after administration. […]

[4] = tumor ECF by microdialysis, S-CKD602 (1 mg/kg), Non-Liposomal CKD-602 (30 mg/kg) IV
[5] = brain, single IV dose (S-CKD602 1 mg/kg; non-liposomal 30 mg/kg)
[6] = fat, single IV dose (S-CKD602 1 mg/kg; non-liposomal 30 mg/kg)
[7] = kidney, single IV dose (S-CKD602 1 mg/kg; non-liposomal 30 mg/kg)
[8] = liver, single IV dose (S-CKD602 1 mg/kg; non-liposomal 30 mg/kg)
[9] = muscle, single IV dose (S-CKD602 1 mg/kg; non-liposomal 30 mg/kg)
[10] = plasma, single IV dose (S-CKD602 1 mg/kg; non-liposomal 30 mg/kg)
[11] = spleen, single IV dose (S-CKD602 1 mg/kg; non-liposomal 30 mg/kg)
[12] = tumor, single IV dose (S-CKD602 1 mg/kg; non-liposomal 30 mg/kg)

CC[C@@]1(O)C(=O)OCc2c1cc1n(c2=O)Cc2c-1nc1ccccc1c2CCNC(C)C [Non-Liposomal CKD-602]
CKD-602 in tumor ECF detectable until ([1]; detectable from 10 min, microdialysis): 19.25 h
variation of CKD-602 concentration in tumor ECF at individual time points ([1]; during the collection intervals): 4- to 5 fold
Time >1 ng/mL In Tumor ECF [1, 4]: ˜20 h
Tumor ECF AUC(0-inf) [1, 4]: 639 ng·h/mL
MTD for a single dose [2]: ~30 mg/kg
AUC, sum total CKD-602, Brain [3, 5]: 849 ng·h/mL
Cmax, sum total CKD-602, Brain [3, 5]: 572 ng/mL
Tlast, sum total CKD-602, Brain [3, 5]: 7 h
Tmax, sum total CKD-602, Brain [3, 5]: 4.8 min
Cmax, sum total CKD-602, Fat [3, 6]: 7,321 ng/mL
Tlast, sum total CKD-602, Fat [3, 6]: 24 h
Tmax, sum total CKD-602, Fat [3, 6]: 15 min
AUC, sum total CKD-602, Kidney [3, 7]: 56,267 ng/mL · h
Cmax, sum total CKD-602, Kidney [3, 7]: 68,497 ng/mL
Tlast, sum total CKD-602, Kidney [3, 7]: 24 h
Tmax, sum total CKD-602, Kidney [3, 7]: 4.8 min
AUC, sum total CKD-602, Liver [3, 8]: 68,620 ng/mL · h
Cmax, sum total CKD-602, Liver [3, 8]: 69,000 ng/mL
Tlast, sum total CKD-602, Liver [3, 8]: 16 h
Tmax, sum total CKD-602, Liver [3, 8]: 4 h
Cmax, sum total CKD-602, Muscle [3, 9]: 12,383 ng/mL
Tlast, sum total CKD-602, Muscle [3, 9]: 24 h
Tmax, sum total CKD-602, Muscle [3, 9]: 4.8 min
overall distribution in muscle compared with fat ([3]; non-liposomal CKD-602 30 mg/kg IV, muscle vs fat): 3 fold
AUC, sum total CKD-602, Fat ([3]; peritoneal cavity fat, single IV dose (S-CKD602 1 mg/kg; non-liposomal 30 mg/kg)): 8,280 ng/mL · h
Plasma Sum Total AUC(0-inf) ([3]; plasma, S-CKD602 (1 mg/kg), Non-Liposomal CKD-602 (30 mg/kg) IV): 9,117 ng/mL · h
Tlast, sum total CKD-602, Plasma ([3]; plasma, last detectable time, single IV dose (S-CKD602 1 mg/kg; non-liposomal 30 mg/kg)): 16 h
Cmax, sum total CKD-602, Plasma [3, 10]: 6,959 ng/mL
Tmax, sum total CKD-602, Plasma [3, 10]: 4.8 min
Tmax, sum total CKD-602, Plasma ([3]; plasma, single IV dose (S-CKD602 1 mg/kg; non-liposomal 30 mg/kg), listed as non-liposomal CKD-602): 4.98 min
AUC, sum total CKD-602, Plasma ([3]; plasma, single IV dose (S-CKD602 1 mg/kg; non-liposomal CKD-602 30 mg/kg)): 9,117 ng/mL · h
AUC, sum total CKD-602, Muscle ([3]; skeletal muscle, single IV dose (S-CKD602 1 mg/kg; non-liposomal 30 mg/kg)): 24,485 ng/mL · h
AUC, sum total CKD-602, Spleen [3, 11]: 23,124 ng/mL · h
Cmax, sum total CKD-602, Spleen [3, 11]: 14,724 ng/mL
Tlast, sum total CKD-602, Spleen [3, 11]: 24 h
Tmax, sum total CKD-602, Spleen [3, 11]: 15 min
tissues with the highest exposures of CKD-602 ([3]; sum total CKD-602 in tissues): liver and kidney
Tumor Sum Total(0-inf) ([3]; tumor homogenate AUC, S-CKD602 (1 mg/kg), Non-Liposomal CKD-602 (30 mg/kg) IV): 11,661 ng/mL · h
Cmax, sum total CKD-602, Tumor [3, 12]: 3,688 ng/mL
Tlast, sum total CKD-602, Tumor [3, 12]: 24 h
Tmax, sum total CKD-602, Tumor [3, 12]: 30 min

From patent publication US20070254019A1, “METHOD FOR TREATING BRAIN CANCER” (priority 2006, published 2007)
